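Test compounds were applied to cells in 96-well plates for 48 hours at 5 doses. GI50 marks 50% less growth. TGI denotes the concentration required for complete inhibition of growth.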
Legend:
Experiment in all cases: NCI tumour cell line growth inhibition, 48 h; in the data active = GI50 below about 0.43 µM; inactive = the rest
U251 CNS = system: U251 CNS
OVCAR-3 ovarian = system: OVCAR-3 ovarian
KM12 colon = system: KM12 colon
SK-OV-3 ovarian = system: SK-OV-3 ovarian
RXF-631 renal = system: RXF-631 renal
SK-MEL-5 melanoma = system: SK-MEL-5 melanoma
LOX IMVI melanoma = system: LOX IMVI melanoma
MOLT-4 leukemia = system: MOLT-4 leukemia
HL-60(TB) leukemia = system: HL-60(TB) leukemia
NCI-H460 lung = system: NCI-H460 lung
K-562 leukemia = system: K-562 leukemia
UO-31 renal = system: UO-31 renal
SF-295 CNS = system: SF-295 CNS
UACC-62 melanoma = system: UACC-62 melanoma
SK-MEL-2 melanoma = system: SK-MEL-2 melanoma
RPMI-8226 leukemia = system: RPMI-8226 leukemia
SF-539 CNS = system: SF-539 CNS
DLD-1 colon = system: DLD-1 colon
786-0 renal = system: 786-0 renal
M14 melanoma = system: M14 melanoma
HCC-2998 colon = system: HCC-2998 colon
CAKI-1 renal = system: CAKI-1 renal
DMS 273 small cell lung = system: DMS 273 small cell lung
KM20L2 colon = system: KM20L2 colon
OVCAR-8 ovarian = system: OVCAR-8 ovarian
MALME-3M melanoma = system: MALME-3M melanoma
IGROV1 ovarian = system: IGROV1 ovarian
UACC-257 melanoma = system: UACC-257 melanoma
COLO 205 colon = system: COLO 205 colon
ACHN renal = system: ACHN renal
SNB-78 CNS = system: SNB-78 CNS
HCT-15 colon = system: HCT-15 colon
HCT-116 colon = system: HCT-116 colon
SW-620 colon = system: SW-620 colon
HOP-62 NSCLC = system: HOP-62 NSCLC
SNB-19 CNS = system: SNB-19 CNS
A549 NSCLC = system: A549 NSCLC
HOP-92 NSCLC = system: HOP-92 NSCLC
OVCAR-5 ovarian = system: OVCAR-5 ovarian
CCRF-CEM leukemia = system: CCRF-CEM leukemia
A498 renal = system: A498 renal
DMS 114 small cell lung = system: DMS 114 small cell lung
M19-MEL melanoma = system: M19-MEL melanoma
TK-10 renal = system: TK-10 renal
LXFL 529 NSCLC = system: LXFL 529 NSCLC
EKVX NSCLC = system: EKVX NSCLC
OVCAR-4 ovarian = system: OVCAR-4 ovarian
SR leukemia = system: SR leukemia
NCI-H522 lung = system: NCI-H522 lung
NCI-H226 lung = system: NCI-H226 lung
SNB-75 CNS = system: SNB-75 CNS
SK-MEL-28 melanoma = system: SK-MEL-28 melanoma
HT29 colon = system: HT29 colon
SF-268 CNS = system: SF-268 CNS
NCI-H23 lung = system: NCI-H23 lung
RXF 393 renal = system: RXF 393 renal
SN12C renal = system: SN12C renal

NS(=O)(=O)c1cc2c(cc1Cl)NC(/C(=N/NC(=O)c1ccncc1)C1C(=O)NC(=O)NC1=O)=NS2(=O)=O
> 100 µM: TGI (U251 CNS) | TGI (OVCAR-3 ovarian) | TGI (KM12 colon) | TGI (SK-OV-3 ovarian) | TGI (RXF-631 renal) | TGI (SK-MEL-5 melanoma) | TGI (LOX IMVI melanoma) | TGI (MOLT-4 leukemia) | TGI (HL-60(TB) leukemia) | TGI (NCI-H460 lung) | TGI (K-562 leukemia) | TGI (UO-31 renal) | TGI (SF-295 CNS) | TGI (UACC-62 melanoma) | TGI (SK-MEL-2 melanoma) | TGI (RPMI-8226 leukemia) | TGI (SF-539 CNS) | TGI (DLD-1 colon) | TGI (786-0 renal) | TGI (M14 melanoma) | TGI (HCC-2998 colon) | TGI (CAKI-1 renal) | TGI (DMS 273 small cell lung) | TGI (KM20L2 colon) | TGI (OVCAR-8 ovarian) | TGI (MALME-3M melanoma) | TGI (IGROV1 ovarian) | TGI (UACC-257 melanoma) | TGI (COLO 205 colon) | TGI (ACHN renal) | TGI (SNB-78 CNS) | TGI (HCT-15 colon) | TGI (HCT-116 colon) | TGI (SW-620 colon) | TGI (HOP-62 NSCLC) | TGI (SNB-19 CNS) | TGI (A549 NSCLC) | TGI (HOP-92 NSCLC) | TGI (OVCAR-5 ovarian) | TGI (CCRF-CEM leukemia) | TGI (A498 renal) | TGI (DMS 114 small cell lung) | TGI (M19-MEL melanoma) | TGI (TK-10 renal) | TGI (LXFL 529 NSCLC) | TGI (EKVX NSCLC) | TGI (OVCAR-4 ovarian)

NC(=O)c1cn(C2OC(CO)C(O)C2O)c(=O)[nH]c1=O (centres undefined)
> 100 µM: TGI (U251 CNS) | TGI (SR leukemia) | TGI (OVCAR-3 ovarian) | TGI (KM12 colon) | TGI (SK-OV-3 ovarian) | TGI (NCI-H522 lung) | TGI (RXF-631 renal) | TGI (SK-MEL-5 melanoma) | TGI (LOX IMVI melanoma) | TGI (MOLT-4 leukemia) | TGI (HL-60(TB) leukemia) | TGI (NCI-H460 lung) | TGI (K-562 leukemia) | TGI (UO-31 renal) | TGI (SF-295 CNS) | TGI (UACC-62 melanoma) | TGI (SK-MEL-2 melanoma) | TGI (NCI-H226 lung) | TGI (RPMI-8226 leukemia) | TGI (SF-539 CNS) | TGI (DLD-1 colon) | TGI (786-0 renal) | TGI (M14 melanoma) | TGI (CAKI-1 renal) | TGI (DMS 273 small cell lung) | TGI (OVCAR-8 ovarian) | TGI (SNB-75 CNS) | TGI (IGROV1 ovarian) | TGI (UACC-257 melanoma) | TGI (COLO 205 colon) | TGI (SK-MEL-28 melanoma) | TGI (HT29 colon) | TGI (ACHN renal) | TGI (SNB-78 CNS) | TGI (HCT-15 colon) | TGI (HCT-116 colon) | TGI (SW-620 colon) | TGI (HOP-62 NSCLC) | TGI (A549 NSCLC) | TGI (HOP-92 NSCLC) | TGI (SF-268 CNS) | TGI (OVCAR-5 ovarian) | TGI (CCRF-CEM leukemia) | TGI (NCI-H23 lung) | TGI (A498 renal) | TGI (DMS 114 small cell lung) | TGI (M19-MEL melanoma) | TGI (TK-10 renal) | TGI (LXFL 529 NSCLC) | TGI (EKVX NSCLC) | TGI (OVCAR-4 ovarian)

Nc1ccccc1Nc1ccccc1C(=O)[O-].Nc1ccccc1Nc1ccccc1C(=O)[O-].[Ni+2]
> 100 µM: TGI (U251 CNS) | TGI (SR leukemia) | TGI (OVCAR-3 ovarian) | TGI (KM12 colon) | TGI (SK-OV-3 ovarian) | TGI (RXF-631 renal) | TGI (SK-MEL-5 melanoma) | TGI (LOX IMVI melanoma) | TGI (MOLT-4 leukemia) | TGI (HL-60(TB) leukemia) | TGI (NCI-H460 lung) | TGI (K-562 leukemia) | TGI (UO-31 renal) | TGI (SF-295 CNS) | TGI (UACC-62 melanoma) | TGI (NCI-H226 lung) | TGI (RPMI-8226 leukemia) | TGI (SF-539 CNS) | TGI (786-0 renal) | TGI (M14 melanoma) | TGI (HCC-2998 colon) | TGI (CAKI-1 renal) | TGI (RXF 393 renal) | TGI (KM20L2 colon) | TGI (OVCAR-8 ovarian) | TGI (MALME-3M melanoma) | TGI (SNB-75 CNS) | TGI (IGROV1 ovarian) | TGI (UACC-257 melanoma) | TGI (COLO 205 colon) | TGI (SK-MEL-28 melanoma) | TGI (SN12C renal) | TGI (HT29 colon) | TGI (ACHN renal) | TGI (HCT-15 colon) | TGI (HCT-116 colon) | TGI (SW-620 colon) | TGI (SNB-19 CNS) | TGI (A549 NSCLC) | TGI (HOP-92 NSCLC) | TGI (SF-268 CNS) | TGI (OVCAR-5 ovarian) | TGI (CCRF-CEM leukemia) | TGI (NCI-H23 lung) | TGI (TK-10 renal) | TGI (EKVX NSCLC) | TGI (OVCAR-4 ovarian)
inactive: GI50 (SR leukemia) > 100 µM | GI50 (RXF-631 renal) > 100 µM | GI50 (LOX IMVI melanoma) > 100 µM | GI50 (HL-60(TB) leukemia) > 100 µM | GI50 (NCI-H226 lung) > 100 µM | GI50 (RXF 393 renal) 60.1 µM | GI50 (HOP-92 NSCLC) > 100 µM | GI50 (OVCAR-4 ovarian) 67.8 µM
86 µM: TGI (NCI-H522 lung)

Source: PubChem BioAssay (NCI)
